Data as given in paper PMC7704793 (Bioorganic & medicinal chemistry letters, 2020).

Experiments:
MRSA ATCC 43300 = experiment: Inhibition of MRSA biofilm formation, crystal violet reporter assay; type: cell-based, Staphylococcus aureus; details: SAR discussion
CCD-18 Co cells = experiment: MTT cytotoxicity assay in normal human colon cells; type: cell-based; details: day 1, CCD-18 Co cells

With `Nc1nc(-c2cccc(OCc3ccccc3)c2)cc(-c2nc3ccccc3c(=O)[nH]2)n1` [Compound 5r] the “MRSA biofilm inhibition activity compared to the parent 5a (in words)” value (MRSA ATCC 43300) was “reduced activity”.
In the case of `COc1cc(OC)c(-c2cc(-c3nc4ccccc4c(=O)[nH]3)nc(N)n2)c(OC)c1` [Compound 5h], the “cellular toxicity (MTT)” value (CCD-18 Co cells; 50 μM, versus DMSO controls) is reported as “minimal”.
For `COc1cc(-c2cc(-c3nc4ccccc4c(=O)[nH]3)nc(N)n2)cc(OC)c1OC` [Compound 5i], the “MRSA biofilm inhibition activity compared to the parent 5a (in words)” value (MRSA ATCC 43300) was “considerably reduced activity”.
For `COc1ccc(-c2cc(-c3nc4ccccc4c(=O)[nH]3)nc(N)n2)cc1OC` [Compound 5e], the “MRSA biofilm inhibition activity compared to the parent 5a (in words)” value (MRSA ATCC 43300) was “reduced activity”.
With `Cc1ccc(-c2cc(-c3nc4ccccc4c(=O)[nH]3)nc(N)n2)cc1` [Compound 5b] the “MRSA biofilm inhibition activity compared to the parent 5a (in words)” value (MRSA ATCC 43300) was “reduced activity”.
For `CSc1ccc(-c2cc(-c3nc4ccccc4c(=O)[nH]3)nc(N)n2)cc1` [Compound 5j], the “cellular toxicity (MTT)” value (CCD-18 Co cells; 50 μM, versus DMSO controls) was “more cytotoxic”.
`Nc1nc(-c2cccc(Br)c2)cc(-c2nc3ccccc3c(=O)[nH]2)n1` [Compound 5k] was tested, and the “cellular toxicity (MTT)” value (CCD-18 Co cells; 12.5 μM (lowest concentration used)) was “significant toxicity”.
